From article PMC11124413, “Synthesis, Antibacterial Effects, and Toxicity of Licochalcone C” (Pharmaceuticals, 2024)
≈ marks a conversion by molar mass, not a printed value. Where “and” joins values, the source holds several entries; their conditions need not be identical. Equal values may be shown once.

Key:
MRSA (ATCC BAA44) = experiment: MIC, broth microdilution with resazurin; type: cell-based; settings: Staphylococcus aureus (MRSA); mean of triplicates; read-out: MIC
MRSA biofilm = experiment: Antibiofilm assay (biofilm formation); type: cell-based, S. aureus; settings: MRSA biofilm formation
MRSA planktonic cells = experiment: Checkerboard assay; type: cell-based, S. aureus
Method: The combinations of LCC with tetracycline and vancomycin were evaluated against MSSA and MRSA, respectively, using a microdilution broth checkerboard assay, according to White and collaborators, adapted with the standard procedure established by the CLSI [51, 54]. The fractional inhibitory concentration (FIC) of the combination between LCC and tetracycline or vancomycin was determined using Mueller–Hinton broth culture medium into 96-well plates, with a final inoculum suspension of 5.0 × 10^5 CFU/mL, incubated at 37 °C for 24 h. After incubation, an aqueous resazurin solution (0.02%) was added to the wells and the FIC values (ratio between the MIC of the drug in combination and the MIC of the drug alone) were determined for each drug (Equations (1) and (2)). The fractional inhibitory concentration index (FICI) was calculated using Equation (3). (1) FICLCC=MIC of drug A in combination/MIC of drug A alone (2) FICD=MIC of drug B in combination/MIC of drug B alone FIC Index (FICI) = FICLCC + FICD(3)
The combination was classified as synergistic (FICI ≤ 0.5), indifferent (0.5 < FICI < 4), and antagonistic (FICI ≥ 4). The assays were performed in triplicate in independent experiments.

M. avium (ATCC 25291) = experiment: Antimycobacterial MIC, resazurin microtiter assay; type: cell-based; settings: ATCC25291; Mycobacterium avium; mean of triplicates
[1] = tested on: M. tuberculosis (ATCC 27294); experiment: Antimycobacterial MIC, resazurin microtiter assay; type: cell-based; settings: ATCC27294; Mycobacterium tuberculosis; mean of triplicates
M. kansasii (ATCC 12478) = experiment: Antimycobacterial MIC, resazurin microtiter assay; type: cell-based; settings: ATCC12478; Mycobacterium kansasii; mean of triplicates
Gram-negative strains = tested on: Gram-negative strains; parameters: method as in PMID 20160051; settings: without efflux pump inhibitor (EPI); cited from earlier work
S. mutans (ATCC 25175) = experiment: MIC, broth microdilution with resazurin; type: cell-based; settings: ATCC25175; Streptococcus mutans; mean of triplicates
[2] = tested on: S. sanguinis (ATCC 10556); experiment: MIC, broth microdilution with resazurin; type: cell-based; settings: ATCC10556; Streptococcus sanguinis; mean of triplicates
S. sobrinus (ATCC 33478) = experiment: MIC, broth microdilution with resazurin; type: cell-based; settings: ATCC33478; Streptococcus sobrinus; mean of triplicates

Question: Which MIC (MRSA (ATCC BAA44)) does the source give for `CN[C@H](CC(C)C)C(=O)N[C@H]1C(=O)N[C@@H](CC(N)=O)C(=O)N[C@H]2C(=O)N[C@H]3C(=O)N[C@H](C(=O)N[C@H](C(=O)O)c4cc(O)cc(O)c4-c4cc3ccc4O)[C@H](O)c3ccc(c(Cl)c3)Oc3cc2cc(c3O[C@@H]2O[C@H](CO)[C@@H](O)[C@H](O)[C@H]2O[C@H]2C[C@](C)(N)[C@H](O)[C@H](C)O2)Oc2ccc(cc2Cl)[C@H]1O` [Vancomycin, vancomycin, reference compound] here?
Answer: 0.73 µg/mL (≈ 0.504 µM)

Question: And the “MBIC50 (minimum biofilm inhibitory concentration)” value (MRSA biofilm)?
Answer: 0.737 µg/mL and 0.7375 µg/mL

Question: And the MIC (MRSA planktonic cells; Staphylococcus aureus, read-out: MIC Alone)?
Answer: 0.73 µg/mL

Question: What about the “MIC Combined” value (MRSA planktonic cells; checkerboard, in combination LCC + VAN) of the same molecule?
Answer: 0.36 µg/mL

Question: And the “FICD (fractional inhibitory concentration for the associated drug)” value (MRSA planktonic cells; combination LCC + VAN)?
Answer: 0.5

Question: For `NNC(=O)c1ccncc1` [Isoniazid, reference compound], which MIC (M. avium (ATCC 25291)) is on record?
Answer: > 1 µg/mL

Question: And the MIC [1]?
Answer: 0.5 µg/mL (≈ 3.65 µM)

Question: What about the MIC (M. kansasii (ATCC 12478)) of the same molecule?
Answer: 1 µg/mL (≈ 7.29 µM)

Question: With `CC(C)=CCc1c(O)ccc(C(=O)/C=C/c2ccc(O)cc2)c1O` [IBC, isobavachalcone] as the molecule, how does the antibacterial activity (Gram-negative strains) read?
Answer: weakly active

Question: For `[H]/N=C(\N/C(=N/[H])NCCCCCCNC(=N)NC(=N)Nc1ccc(Cl)cc1)Nc1ccc(Cl)cc1` [Chlorhexidine, chlorhexidine, reference compound], which MIC (S. mutans (ATCC 25175)) is on record?
Answer: 0.4 µg/mL (≈ 0.791 µM)

Question: And the MIC [2]?
Answer: 1.8 µg/mL (≈ 3.56 µM)

Question: What about the MIC (S. sobrinus (ATCC 33478)) of the same molecule?
Answer: 3.6 µg/mL (≈ 7.12 µM)
